ChEMBL document CHEMBL5257089, “Gamabufotalin Induces Apoptosis and Cytoprotective Autophagy through the mTOR Signaling Pathway in Hepatocellular Carcinoma” (J Nat Prod, 2023)
Activity calls are given as the source filed them. No cut-off for these calls is given here.

Tests used:
Huh-7 [1] = assay: Induction of autophagic flux in human Huh-7 cells harbouring mCherry-egfp-LC3 assessed as reduction in number of yellow puncta ratio at 10 nM incubated for 15 mins in presence of gamabufotalin by laser scanning confocal microscopic analysis; type: functional, cell-based
Hep 3B2 [2] = assay: Induction of autophagic flux in human Hep3B cells assessed as rescue of LC3-I accumulation at 10 uM incubated for 48 hrs in presence of gamabufotalin by Western blot analysis; type: functional, cell-based
Hep 3B2 [3] = assay: Induction of apoptosis in human Hep3B cells assessed as increase in cleaved PARP level at 10 nM incubated for 48 hrs in presence of gamabufotalin by immunoblot analysis; type: functional, cell-based
Hep 3B2 [4] = assay: Induction of autophagic flux in human Hep3B cells harbouring mCherry-egfp-LC3 assessed as reduction in number of red puncta ratio at 10 nM incubated for 15 mins in presence of gamabufotalin by laser scanning confocal microscopic analysis; type: functional, cell-based
Huh-7 [5] = assay: Induction of apoptosis in human Huh-7 cells assessed as late apoptotic cells at 10 nM incubated for 48 hrs in presence of gamabufotalin by Annexin V-FITC/PI staining based flow cytometry method (reference value: 4.7%); type: functional
Hep 3B2 [6] = assay: Antitumor activity against human Hep3B cells xenografted in nude mouse model assessed as upregulation of LC3I expression at 5 mg/kg,ip administered every second day for 3 weeks by Western blot analysis; type: functional, organism-based
Hep 3B2 [7] = assay: Induction of apoptosis in human Hep3B cells assessed as early apoptotic cells at 25 nM incubated for 48 hrs by Annexin V-FITC/PI staining based flow cytometry method (reference value: 1.3%); type: functional
Hep 3B2 [8] = assay: Induction of apoptosis in human Hep3B cells assessed as upregulation of caspase-3 level […] incubated for 48 hrs in presence of 4,6-dimorpholino-N-(4-nitrophenyl)-1,3,5-triazin-2-amine by immunoblot analysis; type: functional, cell-based
Hep 3B2 [9] = assay: Antiproliferative activity against human Hep3B cells assessed as cell viability incubated for 24 hrs by CCK-8; type: functional, cell-based
Hep 3B2 [10] = assay: Induction of autophagic flux in human Hep3B cells harbouring mCherry-egfp-LC3 assessed as reduction in number of yellow puncta ratio at 25 nM incubated for 15 mins in presence of chloroquine by laser scanning confocal microscopic analysis; type: functional, cell-based
[11] = Toxicity in mouse assessed as effect on serum AST level at 5 mg/kg,ip administered every second day for 3 weeks by H and E staining based microscopic method; type: organism-based; conditions: in vivo, 504 h
Hep 3B2 [12] = assay: Induction of autophagic flux in human Hep3B cells assessed as rescue of LC3-II accumulation at 25 uM incubated for 48 hrs in presence of chloroquine by Western blot analysis; type: functional, cell-based
Hep 3B2 [13] = assay: Antitumor activity against human Hep3B cells xenografted in nude mouse model assessed as upregulation of bax expression at 5 mg/kg,ip administered every second day for 3 weeks by Western blot analysis; type: functional, organism-based
Hep 3B2 [14] = assay: Induction of apoptosis in human Hep3B cells assessed as viable cells at 25 nM measured after 48 hrs by annexin V-FITC/Propidium iodide staining based flow cytometric analysis (reference value: 95.6%); type: functional; conditions: read-out: Activity
Huh-7 [15] = assay: Induction of apoptosis in human Huh-7 cells assessed as viable cells at 25 nM measured after 48 hrs by annexin V-FITC/Propidium iodide staining based flow cytometric analysis (reference value: 91.7%); type: functional; conditions: read-out: Activity
Huh-7 [16] = assay: Induction of apoptosis in human Huh-7 cells assessed as increase in cleaved caspase-3 expression at upto 25 nM incubated for 48 hrs by Western blot analysis; type: functional, cell-based
Hep 3B2 [17] = assay: Induction of apoptosis in human Hep3B cells assessed as late apoptotic cells at 25 nM incubated for 48 hrs by Annexin V-FITC/PI staining based flow cytometry method (reference value: 2.2%); type: functional
Huh-7 [18] = assay: Induction of apoptosis in human Huh-7 cells assessed as necrotic cells at 25 nM incubated for 48 hrs by Annexin V-FITC/PI staining based flow cytometry method (reference value: 0.7%); type: functional
Huh-7 [19] = assay: Induction of apoptosis in human Huh-7 cells assessed as necrotic cells at 20 nM incubated for 48 hrs by Annexin V-FITC/PI staining based flow cytometry method (reference value: 95.4%); type: functional
Hep 3B2 [20] = assay: Antitumor activity against human Hep3B cells xenografted in nude mouse model assessed as upregulation of cleaved caspase-3 expression at 5 mg/kg,ip administered every second day for 3 weeks by Western blot analysis; type: functional, organism-based
Hep 3B2 [21] = assay: Induction of autophagy in human Hep3B cells harbouring mCherry-egfp-LC3 assessed as reduction in yellow puncta ratio at 25 nM incubated for 15 mins in presence of 4,6-dimorpholino-N-(4-nitrophenyl)-1,3,5-triazin-2-amine by laser scanning confocal microscopic analysis; type: functional, cell-based
[22] = Toxicity in mouse assessed as effect on serum CERA level at 5 mg/kg,ip administered every second day for 3 weeks by H and E staining based microscopic method; type: organism-based; conditions: in vivo, 504 h
Hep 3B2 [23] = assay: Induction of apoptosis in human Hep3B cells assessed as necrotic cells at 15 nM incubated for 48 hrs by Annexin V-FITC/PI staining based flow cytometry method (reference value: 0.2%); type: functional
Hep 3B2 [24] = assay: Induction of apoptosis in human Hep3B cells assessed as necrotic cells at 25 nM measured after 48 hrs in presence of Z-VAD-FMK by annexin V-FITC/Propidium iodide staining based flow cytometric analysis (reference value: 0.3%); type: functional
Hep 3B2 [25] = assay: Induction of apoptosis in human Hep3B cells assessed as upregulation of bax level […] incubated for 48 hrs in presence of 4,6-dimorpholino-N-(4-nitrophenyl)-1,3,5-triazin-2-amine by immunoblot analysis; type: functional, cell-based
Hep 3B2 [26] = assay: Induction of apoptosis in human Hep3B cells assessed as increase in cleaved caspase-3 expression at upto 25 nM incubated for 48 hrs by Western blot analysis; type: functional, cell-based
Huh-7 [27] = assay: Induction of apoptosis in human Huh-7 cells assessed as viable cells at 25 nM incubated for 48 hrs in presence of chloroquine by Annexin V-FITC/PI staining based flow cytometry method (reference value: 91.5%); type: functional; conditions: read-out: Activity
Huh-7 [28] = assay: Induction of autophagic flux in human Huh-7 cells assessed as rescue of p62 at 25 uM incubated for 48 hrs in presence of chloroquine by Western blot analysis; type: functional, cell-based
Huh-7 [29] = assay: Induction of apoptosis in human Huh-7 cells assessed as early apoptotic cells at 20 nM incubated for 48 hrs by Annexin V-FITC/PI staining based flow cytometry method (reference value: 1.7%); type: functional
Huh-7 [30] = assay: Induction of autophagic flux in human Huh-7 cells harbouring mCherry-egfp-LC3 assessed as increase in yellow puncta at 25 nM incubated for 15 mins by laser scanning confocal microscopic analysis; type: functional, cell-based
Hep 3B2 [31] = assay: Induction of apoptosis in human Hep3B cells assessed as upregulation of PARP level […] incubated for 48 hrs in presence of 4,6-dimorpholino-N-(4-nitrophenyl)-1,3,5-triazin-2-amine by immunoblot analysis; type: functional, cell-based
[32] = Toxicity in mouse assessed as effect on liver at 5 mg/kg,ip administered every second day for 3 weeks by H and E staining based microscopic method; type: organism-based; conditions: in vivo, 504 h
Huh-7 [33] = assay: Induction of apoptosis in human Huh-7 cells assessed as viable cells at 25 nM incubated for 48 hrs in presence of 4,6-dimorpholino-N-(4-nitrophenyl)-1,3,5-triazin-2-amine by Annexin V-FITC/PI staining based flow cytometry method (reference value: 90.0%); type: functional; conditions: read-out: Activity

Compound: CCN(CC)CCCC(C)Nc1ccnc2cc(Cl)ccc12 (stereo not drawn) [CHLOROQUINE]
- Activity (Huh-7 [1]): Active
- Activity (Hep 3B2 [2]): Active
- Activity (Hep 3B2 [3]): Active
- Activity (Hep 3B2 [4]): Active
- Activity (Huh-7 [5]): 19.1%

Compound: C[C@]12CC[C@H](O)C[C@H]1CC[C@@H]1[C@@H]2[C@H](O)C[C@]2(C)[C@@H](c3ccc(=O)oc3)CC[C@]12O [GAMABUFOTALIN]
- Activity (Hep 3B2 [6]): Active
- Activity (Hep 3B2 [7]): 14.3%
- Activity (Hep 3B2 [8]): Active
- IC50 (Hep 3B2 [9]): 27 nM
- Activity (Hep 3B2 [10]): Active
- Activity [11]: Non-Toxic
- Activity (Hep 3B2 [12]): Active
- Activity (Hep 3B2 [13]): Active
- viability at 0.025 µM (Hep 3B2 [14]): 79.6%
- viability at 0.025 µM (Huh-7 [15]): 72%
- Activity (Huh-7 [16]): Active
- Activity (Hep 3B2 [17]): 10.9%
- Activity (Huh-7 [18]): 6.3%
- Activity (Huh-7 [19]): 60.8%
- Activity (Hep 3B2 [20]): Active
- Activity (Hep 3B2 [21]): Active
- Activity [22]: Non-Toxic
- Activity (Hep 3B2 [23]): 0.5%
- Activity (Hep 3B2 [24]): 0.3%
- Activity (Hep 3B2 [25]): Active
- Activity (Hep 3B2 [26]): Active
- viability at 0.025 µM (Huh-7 [27]): 65.4%
- Activity (Huh-7 [28]): Active
- Activity (Huh-7 [29]): 5.5%
- Activity (Huh-7 [30]): Active
- Activity (Hep 3B2 [31]): Active
- Activity [32]: Non-Toxic
- viability at 0.025 µM (Huh-7 [33]): 76.8%
